Results reported in US8242159B2, “1,3-dihydro-5-isobenzofurancarbonitrile derivatives and pharmaceutical composition thereof for the treatment of premature ejaculation” (Dong-A Pharmaceutical. Co., Ltd, priority 2007, dated 2012).

Tested on: Male Wistar rats
Assay: p-PCA-induced ejaculation in anesthetized rats (ejaculation-delaying effect)
Format: in vivo, rat
Conditions: for Ratio: Number of responding animals/total animal number: 50 mg/kg oral in 1% HPMC, p-PCA 5 mg/kg i.p. 80 min later, observed 30 min; for Latency: Time to display the ejaculatory response: 50 mg/kg oral, p-PCA 5 mg/kg i.p., mean ± standard deviation of responding rats
Procedure: The compounds prepared in the above examples were evaluated to determine whether they have an effect of delaying ejaculation. The evaluation was carried out using an animal model according to a method described in Yonezawa et al., Life Sci. 2000, 67(25) p 3031-9. Male Wistar rats weighing 240-260 g were used. Each compound was suspended in 1% HPMC, and then administered orally to each animal. After 60 min, the animals were anesthetized and fixed. 20 min later, para-chloroamphetamine (p-PCA) was intraperitoneally administered in a dose of 5 mg/kg in order to induce ejaculation. […] An ejaculatory response was considered to be elicited when rhythmic contraction of bulbocavernosus muscles and semen discharge occurs. Six or more animals were used for each compound. A Fisher's […] test was performed for the comparison of the proportion of responding rats (ejaculated rats) to determine significance of difference between a treatment group and a vehicle control. The time to reach ejaculation was expressed as mean±standard deviation.
Each test compound was administered at a dose of 50 mg/kg. Ejaculation was elicited in all seven animals of a control group.

Row | Structure (SMILES) | Ratio: Number of responding animals/total animal number | Latency: Time to display the ejaculatory response [s]
1 | CN(C)c1ccc(C2(CCCn3ccnc3)OCc3cc(C#N)ccc32)cc1 (stereo not drawn) [Ex. 37, 1-(4-dimethylaminophenyl)-1-{3-(imidazole-1-yl)propyl}-1,3-dihydro-5-isobenzofurancarbonitrile] | 4/7 | 950 ± 241
2 | N#Cc1ccc2c(c1)COC2(CCCn1cccn1)c1ccc(F)cc1 (stereo not drawn) [Ex. 57, 1-(4-fluorophenyl)-1-{3-(pyrazole-1-yl)propyl}-1,3-dihydro-5-isobenzofurancarbonitrile] | 4/9 | 951 ± 342
3 | Cc1ccc(C2(CCCn3cccn3)OCc3cc(C#N)ccc32)cc1 (stereo not drawn) [Ex. 30, 1-{3-(pyrazole-1-yl)propyl}-1-(4-tolyl)-1,3-dihydro-5-isobenzofurancarbonitrile] | 3/7 | 876 ± 300
4 | N#Cc1ccc2c(c1)COC2(CCn1cccn1)c1ccc(Cl)cc1 (stereo not drawn) [Ex. 67, 1-(4-chlorophenyl)-1-{2-(pyrazole-1-yl)ethyl}-1,3-dihydro-5-isobenzofurancarbonitrile] | 3/7 | 853 ± 352
5 | Cc1ccc(C2(CCn3ccnc3)OCc3cc(C#N)ccc32)cc1 (stereo not drawn) [Ex. 28, 1-{2-(imidazole-1-yl)ethyl}-1-(4-tolyl)-1,3-dihydro-5-isobenzofurancarbonitrile] | 3/7 | 734 ± 451
6 | Cl.N#Cc1ccc2c(c1)COC2(CCn1ccnc1)c1cccs1 (stereo not drawn) [Ex. 48, 1-{2-(imidazole-1-yl)ethyl}-1-(2-thienyl)-1,3-dihydro-5-isobenzofurancarbonitrile hydrochloride] | 3/7 | 904 ± 321
7 | Cc1ccc(C2(CCCN(C)C)OCc3cc(C#N)ccc32)cc1 (stereo not drawn) [Ex. 22, 1-{3-(dimethylamino)propyl}-1-(4-tolyl)-1,3-dihydro-5-isobenzofurancarbonitrile] | 3/7 | 830 ± 287
8 | COc1ccc(C2(CCCN(C)C)OCc3cc(C#N)ccc32)cc1.Cl (stereo not drawn) [Ex. 3, 1-{3-(dimethylamino)propyl}-1-(4-methoxyphenyl)-1,3-dihydro-5-isobenzofurancarbonitrile hydrochloride] | 1/6 | 1234
9 | Cc1ccc(C2(CCn3cccn3)OCc3cc(C#N)ccc32)cc1 (stereo not drawn) [Ex. 32, 1-{2-(pyrazole-1-yl)ethyl}-1-(4-tolyl)-1,3-dihydro-5-isobenzofurancarbonitrile] | 4/9 | 1000 ± 401
10 | N#Cc1ccc2c(c1)COC2(CCCn1ccnc1)c1cccs1 (stereo not drawn) [Ex. 44, 1-{3-(imidazole-1-yl)propyl}-1-(2-thienyl)-1,3-dihydro-5-isobenzofurancarbonitrile] | 4/7 | 904 ± 350
11 | Cc1ccc(C2(CCCN(C)C)OCc3cc(C#N)ccc32)cc1.Cl (stereo not drawn) [Ex. 23, 1-{3-(dimethylamino)propyl}-1-(4-tolyl)-1,3-dihydro-5-isobenzofurancarbonitrile hydrochloride] | 4/7 | 967 ± 274
12 | Cc1ccc(C2(CCn3ccnc3)OCc3cc(C#N)ccc32)cc1.Cl (stereo not drawn) [Ex. 29, 1-{2-(imidazole-1-yl)ethyl}-1-(4-tolyl)-1,3-dihydro-5-isobenzofurancarbonitrile hydrochloride] | 5/9 | 1054 ± 287
13 | N#Cc1ccc2c(c1)COC2(CCn1ccnc1)c1ccccc1 (stereo not drawn) [Ex. 18, 1-{2-(imidazole-1-yl)ethyl}-1-phenyl-1,3-dihydro-5-isobenzofurancarbonitrile] | 3/7 | 691 ± 361
14 | CN(C)CCCC1(c2ccc(N(C)C)cc2)OCc2cc(C#N)ccc21 (stereo not drawn) [Ex. 34, 1-(4-dimethylaminophenyl)-1-{3-(dimethylamino)propyl}-1,3-dihydro-5-isobenzofurancarbonitrile] | 4/9 | 807 ± 304
15 | Cl.N#Cc1ccc2c(c1)COC2(CCn1cccn1)c1ccccc1 (stereo not drawn) [Ex. 21, 1-phenyl-1-{2-(pyrazole-1-yl)ethyl}-1,3-dihydro-5-isobenzofurancarbonitrile hydrochloride] | 4/7 | 799 ± 387
16 | COc1ccc(C2(CCCn3ccnc3)OCc3cc(C#N)ccc32)cc1.Cl (stereo not drawn) [Ex. 5, 1-{13-(imidazole-1-yl)propyl}-1-(4-methoxyphenyl)-1,3-dihydro-5-isobenzofurancarbonitrile hydrochloride] | 3/7 | 986 ± 342
17 | CN(C)CCC1(c2ccccc2)OCc2cc(C#N)ccc21 (stereo not drawn) [Ex. 14, 1-{2-(dimethylamino)ethyl}-1-phenyl-1,3-dihydro-5-isobenzofurancarbonitrile] | 3/7 | 1032 ± 451
18 | N#Cc1ccc2c(c1)COC2(CCn1cccn1)c1cccs1 (stereo not drawn) [Ex. 51, 1-{2-(pyrazole-1-yl)ethyl}-1-(2-thienyl)-1,3-dihydro-5-isobenzofurancarbonitrile] | 4/7 | 1042 ± 451
19 | Cl.N#Cc1ccc2c(c1)COC2(CCn1cccn1)c1ccc(F)cc1 (stereo not drawn) [Ex. 60, 1-(4-fluorophenyl)-1-{2-(pyrazole-1-yl)ethyl}-1,3-dihydro-5-isobenzofurancarbonitrile hydrochloride] | 4/9 | 1010 ± 400
20 | Cl.N#Cc1ccc2c(c1)COC2(CCn1ccnc1)c1ccccc1 (stereo not drawn) [Ex. 19, 1-{2-(imidazole-1-yl)ethyl}-1-phenyl-1,3-dihydro-5-isobenzofurancarbonitrile hydrochloride] | 5/9 | 954 ± 275
21 | N#Cc1ccc2c(c1)COC2(CCCn1ccnc1)c1ccccc1 (stereo not drawn) [Ex. 16, 1-{3-(imidazole-1-yl)propyl}-1-phenyl-1,3-dihydro-5-isobenzofurancarbonitrile] | 4/9 | 856 ± 365
22 | CN(C)CCC1(c2ccccc2)OCc2cc(C#N)ccc21.Cl (stereo not drawn) [Ex. 15, 1-{2-(dimethylamino)ethyl}-1-phenyl-1,3-dihydro-5-isobenzofurancarbonitrile hydrochloride] | 4/9 | 1345 ± 510
23 | N#Cc1ccc2c(c1)COC2(CCn1cccn1)c1ccccc1 (stereo not drawn) [Ex. 20, 1-phenyl-1-{2-(pyrazole-1-yl)ethyl}-1,3-dihydro-5-isobenzofurancarbonitrile] | 3/7 | 978 ± 378
24 | Cl.N#Cc1ccc2c(c1)COC2(CCCn1cccn1)c1cccs1 (stereo not drawn) [Ex. 50, 1-{3-(pyrazole-1-yl)propyl}-1-(2-thienyl)-1,3-dihydro-5-isobenzofurancarbonitrile hydrochloride] | 3/7 | 979 ± 347
